In brackets after ≈: the same amount, converted by molar mass.
How the values were obtained:
Dihydrofolate reductase [1] = biological target: T1, Dihydrofolate reductase (Rattus norvegicus, UniProt Q920D2); assay: Inhibitory activity against dihydrofolate reductase (DHFR) enzyme from rat liver; conditions: read-out: I50
T1 sequence (Q920D2 whole entry): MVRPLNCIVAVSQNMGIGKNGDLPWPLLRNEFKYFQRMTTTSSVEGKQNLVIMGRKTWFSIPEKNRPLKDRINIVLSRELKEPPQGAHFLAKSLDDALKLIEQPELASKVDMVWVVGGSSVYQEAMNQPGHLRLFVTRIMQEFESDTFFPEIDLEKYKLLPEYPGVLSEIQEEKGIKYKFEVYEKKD

Escherichia coli = assay: In vitro antibacterial activity against Escherichia coli (CN314)
Klebsiella aerogenes = assay: In vitro antibacterial activity against Enterobacter aerogenes (2200/86)
Proteus vulgaris = assay: In vitro antibacterial activity against Proteus vulgaris (CN3296)
Shigella flexneri = assay: In vitro antibacterial activity against Shigella flexneri (CN6007)
Salmonella = assay: In vitro antibacterial activity against Salmonella typhi (CN512)
Staphylococcus aureus = assay: In vitro antibacterial activity against Staphylococcus aureus (CN491)
Klebsiella pneumoniae = assay: microbe, parasite or virus in culture
Description: In vitro antibacterial activity against Klebsiella pneumoniae (CN 3632)

[2] = Partition coefficient (logP); type: physicochemical; conditions: octanol/water
[3] = Acid dissociation constant was determined; type: ADME
Dihydrofolate reductase [4] = biological target: T2, Dihydrofolate reductase (Gallus gallus, UniProt P00378); assay: Inhibitory activity against dihydrofolate reductase (DHFR) enzyme from chicken liver; conditions: read-out: I50
T2 sequence (P00378 whole entry): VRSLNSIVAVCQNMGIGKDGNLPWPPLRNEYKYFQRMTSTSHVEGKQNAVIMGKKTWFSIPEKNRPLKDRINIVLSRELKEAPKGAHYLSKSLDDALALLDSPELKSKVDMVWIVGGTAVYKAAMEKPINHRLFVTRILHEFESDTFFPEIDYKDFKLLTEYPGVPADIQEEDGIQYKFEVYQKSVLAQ

[5] = biological target: Bifunctional dihydrofolate reductase-thymidylate synthase (Plasmodium berghei str. ANKA, UniProt Q27713); assay: Inhibitory activity against dihydrofolate reductase (DHFR) enzyme from Plasmodium berghei; conditions: read-out: I50
Bifunctional dihydrofolate reductase-thymidylate synthase, sequence (Q27713 whole entry): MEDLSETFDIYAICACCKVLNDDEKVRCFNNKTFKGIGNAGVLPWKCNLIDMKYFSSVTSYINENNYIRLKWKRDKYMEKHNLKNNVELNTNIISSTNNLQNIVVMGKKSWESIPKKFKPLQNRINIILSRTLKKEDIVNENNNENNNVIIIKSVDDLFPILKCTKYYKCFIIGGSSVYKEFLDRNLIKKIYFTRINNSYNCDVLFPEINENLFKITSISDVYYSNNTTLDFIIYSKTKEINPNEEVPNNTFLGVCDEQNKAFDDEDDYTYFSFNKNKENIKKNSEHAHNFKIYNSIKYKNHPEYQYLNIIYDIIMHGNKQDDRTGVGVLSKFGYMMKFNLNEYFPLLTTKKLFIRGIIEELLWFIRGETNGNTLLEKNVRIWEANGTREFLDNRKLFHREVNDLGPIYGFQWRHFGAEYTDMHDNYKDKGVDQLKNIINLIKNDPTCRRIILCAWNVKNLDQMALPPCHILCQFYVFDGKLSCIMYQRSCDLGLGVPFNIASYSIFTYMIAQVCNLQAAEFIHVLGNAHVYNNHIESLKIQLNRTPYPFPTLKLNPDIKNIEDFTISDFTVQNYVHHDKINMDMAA

Row | Structure (SMILES) | IC50 (Dihydrofolate reductase [1]) [µM] | MIC (Escherichia coli) [µg/mL] | MIC (Klebsiella aerogenes) [µg/mL] | MIC (Proteus vulgaris) [µg/mL] | MIC (Shigella flexneri) [µg/mL] | MIC (Salmonella) [µg/mL] | MIC (Staphylococcus aureus) [µg/mL] | MIC (Klebsiella pneumoniae) [µg/mL] | logP [2] | pKa [3] | IC50 (Dihydrofolate reductase [4]) [µM] | IC50 [5] [µM]
1 | CCc1ccc(Cc2cnc(N)nc2N)cc1 | > 40 | 10 (≈ 43.8 µM) | 10 (≈ 43.8 µM) | 30 (≈ 131 µM) | 10 (≈ 43.8 µM) | 10 (≈ 43.8 µM) | 30 (≈ 131 µM) | 30 (≈ 131 µM) |  |  |  | 
2 | CCc1ccc(Cc2cnc(N)nc2N)cc1C(C)C | 29 | 30 (≈ 111 µM) | 100 (≈ 370 µM) | 100 (≈ 370 µM) | 30 (≈ 111 µM) | 10 (≈ 37 µM) | 3 (≈ 11.1 µM) | 100 (≈ 370 µM) |  |  |  | 
3 | COc1cc(Cc2cnc(N)nc2N)cc(OC)c1OC [TRIMETHOPRIM] |  | 0.1 (≈ 0.344 µM) | 0.3 (≈ 1.03 µM) | 1 (≈ 3.44 µM) | 0.1 (≈ 0.344 µM) | 0.03 (≈ 0.103 µM) | 0.3 (≈ 1.03 µM) | 1 (≈ 3.44 µM) |  |  |  | 
4 | COc1ccc(Cc2cnc(N)nc2N)cc1 | 170 |  |  |  |  |  |  |  |  |  |  | 
5 | CC(C)c1ccc(Cc2cnc(N)nc2N)cc1 | 210 | 16 (≈ 66 µM) |  | 125 (≈ 516 µM) | 32 (≈ 132 µM) | 16 (≈ 66 µM) | 8 (≈ 33 µM) |  |  |  |  | 
6 | CCc1cc(Cc2cnc(N)nc2N)cc(CC)c1CC | 38 | 1 (≈ 3.52 µM) | 10 (≈ 35.2 µM) | 30 (≈ 105 µM) | 3 (≈ 10.5 µM) | 1 (≈ 3.52 µM) | 0.1 (≈ 0.352 µM) | 10 (≈ 35.2 µM) | 1.33 | 7.12 | 33 | 0.073
7 | COc1ccc(Cc2cnc(N)nc2N)cc1OC [DIAVERIDINE] | 78 | 0.5 (≈ 1.92 µM) | 0.5 (≈ 1.92 µM) | 5 (≈ 19.2 µM) | 0.5 (≈ 1.92 µM) | 0.1 (≈ 0.384 µM) | 5 (≈ 19.2 µM) | 5 (≈ 19.2 µM) |  |  | 300 | 0.21
8 | CCc1ccc(Cc2cnc(N)nc2N)cc1CC | 59 | 3 (≈ 11.7 µM) | 10 (≈ 39 µM) | 30 (≈ 117 µM) | 10 (≈ 39 µM) | 3 (≈ 11.7 µM) | 3 (≈ 11.7 µM) | 30 (≈ 117 µM) |  |  | 120 | 0.068
9 | CC(C)(C)c1ccc(Cc2cnc(N)nc2N)cc1 | 230 | 10 (≈ 39 µM) | 30 (≈ 117 µM) | 100 (≈ 390 µM) | 30 (≈ 117 µM) | 10 (≈ 39 µM) | 10 (≈ 39 µM) | 100 (≈ 390 µM) |  |  |  | 

Source: ChEMBL document CHEMBL1123638 (J Med Chem, 1987)
